One assay deals with c-Raf (Homo sapiens, UniProt P04049). Nature of the assay: Luciferase-coupled chemiluminescence kinase assay (ATP consumption), c-Raf. In kind it is biochemical. The conditions noted are these: read-out: cRaf-1 IC50. The protocol: (§1) Tyrosine kinase activity is determined by 1) measurement of kinase-dependent ATP consumption by in the presence of a generic substrate such as […], tyrosine (pEY), by luciferase/luciferin-mediated chemiluminescence or; 2) incorporation of radioactive phosphate derived from ^33P-ATP into a generic substrate which has been adsorbed onto the well surface of polystyrene microtiter plates. Phosphorylated substrate products are quantified by scintillation spectrometry.
c-Raf, sequence (P04049 whole entry): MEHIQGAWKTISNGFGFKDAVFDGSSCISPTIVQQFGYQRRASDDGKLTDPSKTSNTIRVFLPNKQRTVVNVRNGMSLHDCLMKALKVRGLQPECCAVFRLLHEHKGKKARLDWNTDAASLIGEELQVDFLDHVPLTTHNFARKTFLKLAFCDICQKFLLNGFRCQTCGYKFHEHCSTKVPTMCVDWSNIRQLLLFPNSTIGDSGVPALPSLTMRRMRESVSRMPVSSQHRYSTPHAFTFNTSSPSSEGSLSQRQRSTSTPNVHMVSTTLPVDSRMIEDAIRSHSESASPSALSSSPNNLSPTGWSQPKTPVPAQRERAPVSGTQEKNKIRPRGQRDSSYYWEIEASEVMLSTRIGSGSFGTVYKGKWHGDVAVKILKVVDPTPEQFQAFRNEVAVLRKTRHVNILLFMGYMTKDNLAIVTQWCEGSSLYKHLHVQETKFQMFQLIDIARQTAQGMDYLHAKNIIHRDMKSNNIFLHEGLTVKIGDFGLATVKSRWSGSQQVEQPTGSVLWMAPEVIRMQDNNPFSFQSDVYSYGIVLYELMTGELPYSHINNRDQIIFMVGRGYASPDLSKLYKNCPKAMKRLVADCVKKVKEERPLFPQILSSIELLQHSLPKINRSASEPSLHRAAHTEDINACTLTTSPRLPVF
(§2) Luciferase-Coupled Chemiluminescence Assay Protocol
(§3) Kinase activity is measured as the percent of ATP consumed following the kinase reaction using luciferase-luciferin-coupled chemiluminescence. Reactions were conducted in 384-well white, medium binding microtiter plates (Greiner). Kinase reactions were initiated by combining test compounds, ATP and kinase in a 20 uL volume. The reaction mixture was incubated at ambient temperature for 3 hrs. For c-Raf, B-Raf, and B-RafV599E, […] of the enzyme was pre-incubated with compound in 20 mM Tris pH 7.5, 10 mM MgCl2, 0.03% TX-100, and 1 mM DTT for 30 minutes at room temperature. Following the kinase reaction, a 20 μL aliquot of luciferase-luciferin mix was added and the chemiluminescence signal measured using a Victor^2 plate reader (Perkin Elmer). The luciferase-luciferin mix contained 50 mM HEPES, pH 7.8, 67 mM oxalic acid (pH 7.8), 5 (or 50) mM DTT, 0.4% Triton X-100, 0.25 mg/mL coenzyme A, 63 μM AMP, 28 μg/mL luciferin and 40,000 units/mL luciferase. Total ATP consumption was limited to 25-60% and the IC50 values correlate well with those determined by radiometric assays.

A further assay addresses B-Raf (Homo sapiens, UniProt P15056). The assay is described as follows: Luciferase-coupled chemiluminescence kinase assay (ATP consumption), B-Raf. The assay is classed as biochemical. The conditions noted are these: read-out: bRaf IC50. The protocol:
as §1, §2, §3

B-Raf, sequence (P15056 whole entry): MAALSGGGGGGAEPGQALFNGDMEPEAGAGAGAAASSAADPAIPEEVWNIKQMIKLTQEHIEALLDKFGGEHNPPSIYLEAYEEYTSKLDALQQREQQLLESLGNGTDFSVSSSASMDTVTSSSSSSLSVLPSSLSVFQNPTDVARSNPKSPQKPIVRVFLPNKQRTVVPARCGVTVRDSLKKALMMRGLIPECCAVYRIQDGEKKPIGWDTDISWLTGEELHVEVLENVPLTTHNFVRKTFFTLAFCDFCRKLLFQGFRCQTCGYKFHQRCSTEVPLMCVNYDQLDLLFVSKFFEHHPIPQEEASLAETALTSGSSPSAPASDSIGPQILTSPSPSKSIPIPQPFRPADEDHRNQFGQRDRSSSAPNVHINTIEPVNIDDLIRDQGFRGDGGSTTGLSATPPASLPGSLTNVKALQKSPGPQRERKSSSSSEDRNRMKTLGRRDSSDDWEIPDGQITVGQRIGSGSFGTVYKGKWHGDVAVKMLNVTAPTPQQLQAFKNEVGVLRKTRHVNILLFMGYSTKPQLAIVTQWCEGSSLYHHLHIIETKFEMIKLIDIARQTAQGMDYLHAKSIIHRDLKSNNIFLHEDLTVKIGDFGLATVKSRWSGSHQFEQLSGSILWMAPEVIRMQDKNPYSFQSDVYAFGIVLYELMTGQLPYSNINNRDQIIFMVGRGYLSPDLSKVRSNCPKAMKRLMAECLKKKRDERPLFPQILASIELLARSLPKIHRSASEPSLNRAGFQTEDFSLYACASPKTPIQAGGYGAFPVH

Turning to `COc1cccc(CN2C(=O)c3ccccc3C2(O)c2ccc3c(c2)NC(=O)CO3)c1OC` (centres unmarked) [Entry 54], the IC50 on c-Raf and on B-Raf was at least 10000 nM in each case.
For `O=C1COc2ccc(C3(O)c4ccccc4C(=O)N3Cc3cccc(I)c3)cc2N1` (centres unmarked) [Entry 55, 6-{1-hydroxy-2-[(3-iodophenyl)methyl]-3-oxo-2,3-dihydro-1H-isoindol-1-yl}-2H-1,4-benzoxazin-3(4H)-one], the half-maximal inhibitory concentration (IC50) at c-Raf and on B-Raf was 1000 to 10000 nM in each case.
As to `O=C1COc2ccc(C3(O)c4ccccc4C(=O)N3Cc3cccc(OC(F)(F)F)c3)cc2N1` (centres unmarked) [Entry 56, 6-[1-hydroxy-3-oxo-2-({3-[(trifluoromethyl)oxy]phenyl}methyl)-2,3-dihydro-1H-isoindol-1-yl]-2H-1,4-benzoxazin-3(4H)-one], the IC50 on c-Raf and at B-Raf was at least 10000 nM in each case.
As for `CSc1ccccc1CN1C(=O)c2ccccc2C1(O)c1ccc2c(c1)NC(=O)CO2` (centres unmarked) [Entry 57, 6-(1-hydroxy-2-{[2-(methylthio)phenyl]methyl}-3-oxo-2,3-dihydro-1H-isoindol-1-yl)-2H-1,4-benzoxazin-3(4H)-one], the IC50 on c-Raf and at B-Raf was at least 10000 nM in each case.
Take `O=C1COc2ccc(C3(O)c4ccccc4C(=O)N3c3ccc(F)c(F)c3)cc2N1` (centres unmarked) [Entry 58, 6-[2-(3,4-difluorophenyl)-1-hydroxy-3-oxo-2,3-dihydro-1H-isoindol-1-yl]-2H-1,4-benzoxazin-3(4H)-one]: the IC50 on c-Raf and on B-Raf was 1000 to 10000 nM in each case.
With `CC(C)c1cccc(N2C(=O)c3ccccc3C2(O)c2ccc3c(c2)NC(=O)CO3)c1` (centres unmarked) [Entry 59, 6-{1-hydroxy-2-[3-(1-methylethyl)phenyl]-3-oxo-2,3-dihydro-1H-isoindol-1-yl}-2H-1,4-benzoxazin-3(4H)-one], the half-inhibitory concentration (IC50) on c-Raf and on B-Raf was 100 to 1000 nM throughout.
Turning to `O=C1COc2ccc(C3(O)c4ccccc4C(=O)N3c3cccc(OC(F)(F)F)c3)cc2N1` (centres unmarked) [Entry 60, 6-(1-hydroxy-3-oxo-2-{3-[(trifluoromethyl)oxy]phenyl}-2,3-dihydro-1H-isoindol-1-yl)-2H-1,4-benzoxazin-3(4H)-one], the IC50 at c-Raf and on B-Raf was at least 10000 nM in each case.
For `O=C1COc2ccc(C3(O)c4ccccc4C(=O)N3c3cccc(C(F)(F)F)c3)cc2N1` (centres unmarked) [Entry 61, 6-{1-hydroxy-3-oxo-2-[3-(trifluoromethyl)phenyl]-2,3-dihydro-1H-isoindol-1-yl}-2H-1,4-benzoxazin-3(4H)-one], the half-inhibitory concentration (IC50) fell in the range of 100 to 1000 nM at c-Raf and 1000 to 10000 nM at B-Raf.
The corresponding values for `NS(=O)(=O)c1cccc(N2C(=O)c3ccccc3C2(O)c2ccc3c(c2)NC(=O)CO3)c1` (centres unmarked) [Entry 62, 3-[1-hydroxy-3-oxo-1-(3-oxo-3,4-dihydro-2H-1,4-benzoxazin-6-yl)-1,3-dihydro-2H-isoindol-2-yl]benzenesulfonamide] are 1000 to 10000 nM and at least 10000 nM.
The corresponding values for `COc1ccc(Cl)cc1N1C(=O)c2ccccc2C1(O)c1ccc2c(c1)NC(=O)CO2` (centres unmarked) [Entry 63, 6-{2-[5-chloro-2-(methyloxy)phenyl]-1-hydroxy-3-oxo-2,3-dihydro-1H-isoindol-1-yl}-2H-1,4-benzoxazin-3(4H)-one] are at least 10000 nM and 1000 to 10000 nM.
The corresponding values for `O=C1COc2ccc(C3(O)c4ccccc4C(=O)N3c3ccc(F)c(C(F)(F)F)c3)cc2N1` (centres unmarked) [Entry 64, 6-{2-[4-fluoro-3-(trifluoromethyl)phenyl]-1-hydroxy-3-oxo-2,3-dihydro-1H-isoindol-1-yl}-2H-1,4-benzoxazin-3(4H)-one] are at least 10000 nM and at least 10000 nM.
Regarding `O=C1c2ccccc2C(O)(c2ccc3cc[nH]c3c2)N1Cc1ccccc1` (centres unmarked) [Entry 65, 3-hydroxy-3-(1H-indol-6-yl)-2-(phenylmethyl)-2,3-dihydro-1H-isoindol-1-one], the half-inhibitory concentration (IC50) at c-Raf and on B-Raf was at least 10000 nM in each case.
Turning to `O=C1COc2ccc(C3(O)c4ccccc4C(=O)N3c3cc(F)cc(I)c3)cc2N1` (centres unmarked) [Entry 66, 6-[2-(3-fluoro-5-iodophenyl)-1-hydroxy-3-oxo-2,3-dihydro-1H-isoindol-1-yl]-2H-1,4-benzoxazin-3(4H)-one], the concentration for half-maximal inhibition (IC50) on c-Raf and at B-Raf was 1000 to 10000 nM throughout.
As for `Nc1cccc(N2C(=O)c3ccccc3C2(O)c2ccc3c(c2)NC(=O)CO3)c1` (centres unmarked) [Entry 67, 6-[2-(3-aminophenyl)-1-hydroxy-3-oxo-2,3-dihydro-1H-isoindol-1-yl]-2H-1,4-benzoxazin-3(4H)-one], the IC50 at c-Raf and at B-Raf was 100 to 1000 nM each time.
Regarding `O=C1COc2ccc(C3(O)c4ccccc4C(=O)N3c3cc(F)cc(F)c3)cc2N1` (centres unmarked) [Entry 68, 6-[2-(3,5-difluorophenyl)-1-hydroxy-3-oxo-2,3-dihydro-1H-isoindol-1-yl]-2H-1,4-benzoxazin-3(4H)-one], the IC50 at c-Raf and at B-Raf was 1000 to 10000 nM throughout.
For the compound `CS(=O)(=O)c1cccc(N2C(=O)c3ccccc3C2(O)c2ccc3c(c2)NC(=O)CO3)c1` (centres unmarked) [Entry 69, 6-{1-hydroxy-2-[3-(methylsulfonyl)phenyl]-3-oxo-2,3-dihydro-1H-isoindol-1-yl}-2H-1,4-benzoxazin-3(4H)-one], the IC50 on c-Raf and on B-Raf was at least 10000 nM in each case.
Consider `CCOC(=O)c1cccc(N2C(=O)c3ccccc3C2(O)c2ccc3c(c2)NC(=O)CO3)c1` (centres unmarked) [Entry 70, ethyl 3-[1-hydroxy-3-oxo-1-(3-oxo-3,4-dihydro-2H-1,4-benzoxazin-6-yl)-1,3-dihydro-2H-isoindol-2-yl]benzoate], for which the IC50 on c-Raf and at B-Raf was at least 10000 nM in each case.
For the compound `N#Cc1cccc(N2C(=O)c3ccccc3C2(O)c2ccc3c(c2)NC(=O)CO3)c1` (centres unmarked) [Entry 71, 3-[1-hydroxy-3-oxo-1-(3-oxo-3,4-dihydro-2H-1,4-benzoxazin-6-yl)-1,3-dihydro-2H-isoindol-2-yl]benzonitrile], the IC50 at c-Raf and at B-Raf was 1000 to 10000 nM throughout.
As to `O=C1COc2ccc(C3(O)c4ccccc4C(=O)N3c3ccccc3Cl)cc2N1` (centres unmarked) [Entry 72, 6-[2-(2-chlorophenyl)-1-hydroxy-3-oxo-2,3-dihydro-1H-isoindol-1-yl]-2H-1,4-benzoxazin-3(4H)-one], the 50% inhibitory concentration (IC50) on c-Raf and at B-Raf was 1000 to 10000 nM each time.
In the case of `Nc1cc(Cl)cc(N2C(=O)c3ccccc3C2(O)c2ccc3c(c2)NC(=O)CO3)c1` (centres unmarked) [Entry 73, 6-[2-(3-amino-5-chlorophenyl)-1-hydroxy-3-oxo-2,3-dihydro-1H-isoindol-1-yl]-2H-1,4-benzoxazin-3(4H)-one], the half-maximal inhibitory concentration (IC50) on c-Raf and on B-Raf was below 100 nM in each case.
Consider `Cc1ccc(Cl)cc1N1C(=O)c2ccccc2C1(O)c1ccc2c(c1)NC(=O)CO2` (centres unmarked) [Entry 74, 6-[2-(5-chloro-2-methylphenyl)-1-hydroxy-3-oxo-2,3-dihydro-1H-isoindol-1-yl]-2H-1,4-benzoxazin-3(4H)-one], for which the IC50 at c-Raf and at B-Raf was below 100 nM each time.
Turning to `Cc1c(Cl)cccc1N1C(=O)c2ccccc2C1(O)c1ccc2c(c1)NC(=O)CO2` (centres unmarked) [Entry 75, 6-[2-(3-chloro-2-methylphenyl)-1-hydroxy-3-oxo-2,3-dihydro-1H-isoindol-1-yl]-2H-1,4-benzoxazin-3(4H)-one], the concentration for half-maximal inhibition (IC50) on c-Raf and on B-Raf was 100 to 1000 nM throughout.
On to `CCc1cccc(N2C(=O)c3ccccc3C2(O)c2ccc3c(c2)NC(=O)CO3)c1` (centres unmarked) [Entry 76, 6-[2-(3-ethylphenyl)-1-hydroxy-3-oxo-2,3-dihydro-1H-isoindol-1-yl]-2H-1,4-benzoxazin-3(4H)-one], for which the half-maximal inhibitory concentration (IC50) at c-Raf and at B-Raf was 100 to 1000 nM in each case.
In the case of `C#Cc1cccc(N2C(=O)c3ccccc3C2(O)c2ccc3c(c2)NC(=O)CO3)c1` (centres unmarked) [Entry 77, 6-[2-(3-ethynylphenyl)-1-hydroxy-3-oxo-2,3-dihydro-1H-isoindol-1-yl]-2H-1,4-benzoxazin-3(4H)-one], the IC50 on c-Raf and at B-Raf was 100 to 1000 nM in each case.
As for `O=C1COc2ccc(C3(O)c4ccccc4C(=O)N3c3cccc(O)c3)cc2N1` (centres unmarked) [Entry 78, 6-[1-hydroxy-2-(3-hydroxyphenyl)-3-oxo-2,3-dihydro-1H-isoindol-1-yl]-2H-1,4-benzoxazin-3(4H)-one], the IC50 at c-Raf and on B-Raf was 1000 to 10000 nM throughout.
As for `O=C1COc2ccc(C3(O)c4ccccc4C(=O)N3c3cccc(Oc4ccccc4)c3)cc2N1` (centres unmarked) [Entry 79, 6-{1-hydroxy-3-oxo-2-[3-(phenyloxy)phenyl]-2,3-dihydro-1H-isoindol-1-yl}-2H-1,4-benzoxazin-3(4H)-one], the IC50 at c-Raf lay in the range of 100 to 1000 nM; on B-Raf it was 1000 to 10000 nM.
Turning to `O=C1COc2ccc(C3(O)c4ccccc4C(=O)N3c3cccc(OCc4ccccc4)c3)cc2N1` (centres unmarked) [Entry 80, 6-(1-hydroxy-3-oxo-2-{3-[(phenylmethyl)oxy]phenyl}-2,3-dihydro-1H-isoindol-1-yl)-2H-1,4-benzoxazin-3(4H)-one], the 50% inhibitory concentration (IC50) on c-Raf and at B-Raf was at least 10000 nM in each case.
For the compound `NC(=O)c1cccc(N2C(=O)c3ccccc3C2(O)c2ccc3c(c2)NC(=O)CO3)c1` (centres unmarked) [Entry 81, 3-[1-hydroxy-3-oxo-1-(3-oxo-3,4-dihydro-2H-1,4-benzoxazin-6-yl)-1,3-dihydro-2H-isoindol-2-yl]benzamide], the half-maximal inhibitory concentration (IC50) on c-Raf and at B-Raf was 1000 to 10000 nM each time.

By IC50 is commonly meant the point on the concentration scale where inhibition reaches its midpoint.
